Reference: ChEMBL document CHEMBL3046568, “Synthesis, antimicrobial and DNA cleavage studies of some 4-aryloxymethylcoumarins obtained by reaction of 4-bromomethylcoumarins with bidentate nucleophiles” (2012)
≈ marks a conversion by molar mass, not a printed value. Calls of active or inactive are those of the source. The rule behind the calls is not given here.

Tests used:
[1] = system: Escherichia coli; assay: Induction of Escherichia coli MTCC 1089 DNA cleavage at 50 ug after 2 hr by agarose gel electrophoresis
[2] = system: Staphylococcus aureus; assay: Induction of Staphylococcus aureus MTCC 3160 DNA cleavage at 50 ug after 2 hr by agarose gel electrophoresis
[3] = system: Bacillus subtilis; assay: Antibacterial activity against Bacillus subtilis MTCC 297 after 24 hr by disk diffusion method; format: functional; conditions: for MIC: Bacillus subtilis, MTCC 297, 24 h
[4] = system: Aspergillus niger; assay: Induction of Aspergillus niger DNA cleavage at 50 ug after 2 hr by agarose gel electrophoresis
[5] = system: Candida albicans; assay: Antifungal activity against Candida albicans after 3 to 4 days by serial dilution method; format: functional; conditions: for MIC: Candida albicans
[6] = system: Aspergillus niger; assay: Antifungal activity against Aspergillus niger after 3 to 4 days by serial dilution method; format: functional; conditions: for MIC: Aspergillus niger
[7] = system: Enterococcus faecalis; assay: Antibacterial activity against Enterococcus faecalis MTCC 3382 after 24 hr by disk diffusion method; format: functional; conditions: for MIC: Enterococcus faecalis, MTCC 3382, 24 h
[8] = system: Aspergillus fumigatus; assay: Antifungal activity against Aspergillus fumigatus after 3 to 4 days by serial dilution method; format: functional; conditions: for MIC: Aspergillus fumigatus
[9] = system: Mucor fuscus; assay: Antifungal activity against Mucor fuscus after 3 to 4 days by serial dilution method; format: functional; conditions: for MIC: Mucor fuscus
[10] = system: Penicillium chrysogenum; assay: Antifungal activity against Penicillium chrysogenum after 3 to 4 days by serial dilution method; format: functional; conditions: for MIC: Penicillium chrysogenum
[11] = system: Pseudomonas aeruginosa; assay: Antibacterial activity against Pseudomonas aeruginosa MTCC 1034 after 24 hr by disk diffusion method; format: functional; conditions: for MIC: Pseudomonas aeruginosa, MTCC 1034, 24 h
[12] = system: Fusarium oxysporum; assay: Antifungal activity against Fusarium oxysporum after 3 to 4 days by serial dilution method; format: functional; conditions: for MIC: Fusarium oxysporum
[13] = system: Staphylococcus aureus; assay: Antibacterial activity against Staphylococcus aureus MTCC 3160 after 24 hr by disk diffusion method; format: functional; conditions: for MIC: Staphylococcus aureus, MTCC 3160, 24 h
[14] = system: Klebsiella pneumoniae; assay: Antibacterial activity against Klebsiella pneumoniae MTCC 3384 after 24 hr by disk diffusion method; format: functional; conditions: for MIC: Klebsiella pneumoniae, MTCC 3384, 24 h
[15] = system: Escherichia coli; assay: Antibacterial activity against Escherichia coli MTCC 1089 after 24 hr by disk diffusion method; format: functional; conditions: for MIC: Escherichia coli, MTCC 1089, 24 h

Row | Activity [1] | Activity [2] | MIC [3] [µg/mL] | Activity [4] | MIC [5] [µg/mL] | MIC [6] [µg/mL] | MIC [7] [µg/mL] | MIC [8] [µg/mL] | MIC [9] [µg/mL] | MIC [10] [µg/mL] | MIC [11] [µg/mL] | MIC [12] [µg/mL] | Structure (SMILES) | inhibition zone (IZ) [3] [mm] | inhibition zone (IZ) [5] [mm] | inhibition zone (IZ) [6] [mm] | inhibition zone (IZ) [7] [mm] | inhibition zone (IZ) [8] [mm] | inhibition zone (IZ) [9] [mm] | inhibition zone (IZ) [10] [mm] | inhibition zone (IZ) [11] [mm] | also measured
1 | inactive | inactive | 25 (≈ 78.5 µM) | inactive | 12.5 (≈ 39.3 µM) | 12.5 (≈ 39.3 µM) | 25 (≈ 78.5 µM) | 12.5 (≈ 39.3 µM) | 25 (≈ 78.5 µM) | 25 (≈ 78.5 µM) | 6.25 (≈ 19.6 µM) | 25 (≈ 78.5 µM) | O=c1cc(COc2cccc(O)c2)c2ccc3ccccc3c2o1 | 12 | 13 | 17 | 13 | 15 | 13 | 16 | 19 | inhibition zone (IZ) [12]: 12 mm; inhibition zone (IZ) [13]: 10 mm; MIC [13]: 25 µg/mL (≈ 78.5 µM); inhibition zone (IZ) [14]: 14 mm; MIC [14]: 12.5 µg/mL (≈ 39.3 µM); inhibition zone (IZ) [15]: 13 mm; MIC [15]: 25 µg/mL (≈ 78.5 µM)
2 | Active | Active | 6.25 (≈ 15.5 µM) | Active | 12.5 (≈ 31.1 µM) | 6.25 (≈ 15.5 µM) | 6.25 (≈ 15.5 µM) | 6.25 (≈ 15.5 µM) | 12.5 (≈ 31.1 µM) | 6.25 (≈ 15.5 µM) | 6.25 (≈ 15.5 µM) | 25 (≈ 62.1 µM) | CCN(CC)c1cccc(OCc2cc(=O)oc3ccc(Br)cc23)c1 | 17 | 16 | 20 | 19 | 20 | 18 | 21 | 23 | inhibition zone (IZ) [12]: 14 mm; inhibition zone (IZ) [13]: 18 mm; MIC [13]: 6.25 µg/mL (≈ 15.5 µM); inhibition zone (IZ) [14]: 18 mm; MIC [14]: 6.25 µg/mL (≈ 15.5 µM); inhibition zone (IZ) [15]: 15 mm; MIC [15]: 12.5 µg/mL (≈ 31.1 µM)
3 | inactive | inactive | 12.5 (≈ 27.5 µM) | inactive | 25 (≈ 55 µM) | 12.5 (≈ 27.5 µM) | 12.5 (≈ 27.5 µM) | 12.5 (≈ 27.5 µM) | 12.5 (≈ 27.5 µM) | 25 (≈ 55 µM) | 25 (≈ 55 µM) | > 100 | Cc1ccc2oc(=O)cc(COc3cccc(OCc4cc(=O)oc5ccc(C)cc45)c3)c2c1 | 14 | 9 | 17 | 16 | 17 | 16 | 16 | 13 | inhibition zone (IZ) [13]: 14 mm; MIC [13]: 12.5 µg/mL (≈ 27.5 µM); inhibition zone (IZ) [14]: 12 mm; MIC [14]: 12.5 µg/mL (≈ 27.5 µM); MIC [15]: > 100 µg/mL
4 | inactive | inactive | 12.5 (≈ 38.7 µM) | inactive | 25 (≈ 77.3 µM) | 6.25 (≈ 19.3 µM) | 12.5 (≈ 38.7 µM) | 12.5 (≈ 38.7 µM) | 12.5 (≈ 38.7 µM) | 12.5 (≈ 38.7 µM) | 12.5 (≈ 38.7 µM) | 50 (≈ 155 µM) | CC(=O)Nc1cccc(OCc2cc(=O)oc3cc(C)ccc23)c1 | 15 | 9 | 19 | 14 | 16 | 16 | 18 | 16 | inhibition zone (IZ) [12]: 9 mm; inhibition zone (IZ) [13]: 14 mm; MIC [13]: 12.5 µg/mL (≈ 38.7 µM); inhibition zone (IZ) [14]: 14 mm; MIC [14]: 12.5 µg/mL (≈ 38.7 µM); inhibition zone (IZ) [15]: 10 mm; MIC [15]: 25 µg/mL (≈ 77.3 µM)
